Data set [1] can be described thus: Comparison of brain penetrance between quinolines and isoquinolines (IP dosing). It is filed as in vivo. The settings on record: IP 5 mg/kg, C57Bl/6 mice; for Kp / AUC: mouse; for Kp: brain/plasma, read-out: ratio (AUC brain / AUC plasma); for AUC: plasma. The protocol:
Comparator B (see Table 7) and Compound 2 were dosed in C57Bl/6 mice at 5 mg/kg in 10% DMAC/10% Solutol HS15/80% saline. Comparator A (see Table 7) was dosed at 5 mg/kg in 5% dextrose/water. All compounds were dosed IP. Mice were sacrificed at 5, 15, 30 minutes and 1, 2, 4, 8 and 24 hours after dosing. Plasma concentration of compound was determined at all time points by LC/MS/MS. Brain concentration was determined at 1, 4, 8 and 24 hours after dosing. The AUC was calculated using WinNonLin software. The results are shown in Table 7, where plasma AUC is expressed as hr*ng/mL and brain AUC is expressed as hr*ng/g.

For the next data set, the target named is T1, HDAC1 (Homo sapiens, UniProt Q13547).
T1 construct: purchased BPS Biosciences
T1 sequence (Q13547 whole entry): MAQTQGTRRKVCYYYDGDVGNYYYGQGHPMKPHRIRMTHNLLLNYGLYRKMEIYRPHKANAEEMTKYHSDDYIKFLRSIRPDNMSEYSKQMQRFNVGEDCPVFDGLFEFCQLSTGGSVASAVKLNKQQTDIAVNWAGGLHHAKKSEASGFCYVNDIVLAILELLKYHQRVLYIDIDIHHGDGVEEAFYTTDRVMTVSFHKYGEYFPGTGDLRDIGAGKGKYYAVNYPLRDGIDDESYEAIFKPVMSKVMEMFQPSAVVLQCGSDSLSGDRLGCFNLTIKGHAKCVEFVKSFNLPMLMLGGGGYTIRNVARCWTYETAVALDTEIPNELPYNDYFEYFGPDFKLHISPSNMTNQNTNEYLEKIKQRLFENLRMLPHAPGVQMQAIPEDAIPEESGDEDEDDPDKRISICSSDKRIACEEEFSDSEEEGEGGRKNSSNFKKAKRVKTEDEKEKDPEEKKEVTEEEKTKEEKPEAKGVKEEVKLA
The data set can be described thus: HDAC enzyme assay, HDAC1. It is filed as biochemical. The settings on record: enzyme and compound incubated 24 hours at room temperature. The protocol:
(§1) Compounds for testing were diluted in DMSO to 50 fold the final concentration and a ten point three fold dilution series was made. The compounds were diluted in assay buffer (50 mM HEPES, pH 7.4, 100 mM KCl, 0.001% Tween-20, 0.05% BSA, 20 μM TCEP) to 6 fold their final concentration. The HDAC enzymes (purchased from BPS Biosciences) were diluted to 1.5 fold their final concentration in assay buffer. The tripeptide substrate and trypsin at 0.05 μM final concentration were diluted in assay buffer at 6 fold their final concentration. The final enzyme concentrations used in these assays were 3.3 ng/ml (HDAC1), 0.2 ng/ml (HDAC2) and 0.08 ng/ml (HDAC3). The final substrate concentrations used were 16 μM (HDAC1), 10 μM (HDAC2) and 17 μM (HDAC3). Five μl of compound and 20 μl of enzyme were added to wells of a black, opaque 384 well plate in duplicate. Enzyme and compound were incubated together at room temperature for 24 hours. Five μl of substrate was added to each well, the plate was shaken for 60 seconds and placed into a Victor 2 microtiter plate reader. The development of fluorescence was monitored for 60 min and the linear rate of the reaction was calculated. The IC50 was determined using Graph Pad Prism by a four parameter curve fit.

The target in another data set is T2, HDAC3 (Homo sapiens, UniProt O15379).
T2 construct: purchased BPS Biosciences
T2 sequence (O15379 whole entry): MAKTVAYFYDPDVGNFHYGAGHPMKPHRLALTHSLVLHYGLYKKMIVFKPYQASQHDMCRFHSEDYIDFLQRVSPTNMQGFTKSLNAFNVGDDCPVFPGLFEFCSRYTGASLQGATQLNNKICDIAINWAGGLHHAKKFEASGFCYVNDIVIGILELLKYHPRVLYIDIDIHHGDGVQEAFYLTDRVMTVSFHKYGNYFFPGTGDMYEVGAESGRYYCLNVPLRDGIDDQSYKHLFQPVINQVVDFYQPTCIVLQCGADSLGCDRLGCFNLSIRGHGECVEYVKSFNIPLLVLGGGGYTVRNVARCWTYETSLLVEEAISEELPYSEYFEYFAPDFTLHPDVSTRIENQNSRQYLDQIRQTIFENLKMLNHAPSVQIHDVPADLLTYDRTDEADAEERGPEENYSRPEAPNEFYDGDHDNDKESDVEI
T2 sequence (Q9Y618 395-489 partner limits assumed): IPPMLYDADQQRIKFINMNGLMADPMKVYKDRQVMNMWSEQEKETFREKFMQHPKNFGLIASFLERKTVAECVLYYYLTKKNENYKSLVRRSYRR
The data set can be described thus: HDAC enzyme assay, HDAC3. The data set is classed as biochemical. The note with it: enzyme and compound incubated 24 hours at room temperature. The procedure:
as §1

A further data set deals with T3, HDAC2 (Homo sapiens, UniProt Q92769).
T3 construct: purchased BPS Biosciences
T3 sequence (Q92769 whole entry): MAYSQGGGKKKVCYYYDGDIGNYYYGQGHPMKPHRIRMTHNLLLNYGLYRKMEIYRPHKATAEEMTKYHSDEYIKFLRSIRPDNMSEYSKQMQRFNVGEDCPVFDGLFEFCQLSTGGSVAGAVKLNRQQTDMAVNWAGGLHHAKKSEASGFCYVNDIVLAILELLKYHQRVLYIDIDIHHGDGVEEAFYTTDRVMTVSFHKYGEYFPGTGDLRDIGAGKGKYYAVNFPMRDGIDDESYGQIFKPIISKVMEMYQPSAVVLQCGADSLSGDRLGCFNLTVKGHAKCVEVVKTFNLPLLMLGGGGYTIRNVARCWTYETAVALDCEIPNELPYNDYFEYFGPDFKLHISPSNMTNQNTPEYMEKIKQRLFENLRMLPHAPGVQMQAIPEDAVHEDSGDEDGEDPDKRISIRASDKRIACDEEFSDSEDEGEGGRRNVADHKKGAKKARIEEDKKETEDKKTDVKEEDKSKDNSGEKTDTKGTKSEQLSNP
Nature of the data set: HDAC enzyme assay, HDAC2. It is filed as biochemical. The settings on record: enzyme and compound incubated 24 hours at room temperature. The protocol: as §1

Data set [2] can be described thus: Pharmacokinetics in plasma and brain after IV administration. It is filed as in vivo. The settings on record: IV 1 mg/kg, male C57BL/6 mice; for Kp / Cmax / Tmax / half-life / AUC(0-inf) / AUC(0-t) / MRT inf / clearance / Vd: mouse; for Kp: brain/plasma, read-out: AUCbrain/AUCplasma; for Vd: read-out: Vss. The protocol:
Male C57Bl/6 mice were fasted overnight. Compounds of the invention were dissolved in dimethyl acetamide at 10 times the final concentration, then Solutol HS 15 (BASF) was added to a final concentration of 10%. Finally 80% saline was added and vortexed to achieve a clear solution. Fifteen animals were injected via the tail vein with 1 mg/kg compound. Blood was collected via retro orbital puncture into K2EDTA tubes at 5 minutes, 15 minutes, 30 minutes, 1 hour, 2 hours, 4 hours, 8 hours and 24 hours after dosing. The blood was centrifuged at 2000 g for 5 minutes at 4° C. to obtain plasma. The plasma was extracted with acetonitrile and the level of compound was analyzed by LC/MS/MS. The level of compound in plasma was calculated from a standard curve in mouse plasma. For brain levels, animals were sacrificed at 5 minutes, 15 minutes, 1 hour, 4 hours and 24 hours. Brains were removed and homogenized in acetonitrile and extracted. The level of compound in brain was calculated from a standard curve in mouse brain tissue. The IV clearance and area under the curve were calculated using WinNonLin software. The ratio of area under the curve for plasma and brain samples was calculated to produce the brain/plasma ratio.

SMILES strings stand for the structures.

For `Nc1ccc(-c2cccs2)cc1NC(=O)c1cnc2cc(N3CCNCC3)ccc2c1` [Comparator B], in data set [1], the AUC brain stood at 655 ng·h/g, the Kp was determined as 0.06 and the AUC came to 10800 ng·h/mL.
`CN(C)CCNc1ccc2cc(C(=O)Nc3cc(-c4cccs4)ccc3N)ncc2c1` [Compound 5]: the IC50 is 2 nM against HDAC1, 19 nM against HDAC3 and 6 nM on HDAC2.
`CN1CCCC1C(=O)Nc1ccc2cc(C(=O)Nc3cc(-c4cccs4)ccc3N)ncc2c1` (centres unmarked) [Compound 7]: the IC50 amounted to 3 nM at HDAC1, 66 nM against HDAC3 and 10 nM against HDAC2.
`Nc1ccc(-c2ccncc2)cc1NC(=O)c1cc2ccc(N3CCNCC3)cc2cn1` [Compound 3] displayed an IC50 against HDAC1 of 7 nM. For the same molecule, the IC50 against HDAC3 stood at 74 nM. Moreover, in data set [2] (brain), the AUCINF was found to be 1439 ng·h/g, the AUClast was found to be 1237 ng·h/g, the highest level (Cmax) was 126 ng/g and the Tmax amounted to 0.25 h. For the same molecule, the half-life in data set [2] (brain) was 8.63 h. For the same molecule, the Kp in data set [2] came out at 1.8. Moreover, in data set [2] (plasma, PK cassette), the AUC(0-inf) was found to be 799 ng·h/mL, the AUC(0-t) stood at 770 ng·h/mL, the mean residence time (MRT inf) is 5.45 h and the clearance was 20.8 mL/min/kg. In data set [2] (plasma, PK cassette), the half-life was 5.68 h and the Vd was 6.82 L/kg. The same molecule gave an IC50 on HDAC2 of 8 nM.
As to `Nc1ccc(-c2cccs2)cc1NC(=O)c1ccc2nc(N3CCNCC3)ccc2c1` [Comparator A], in data set [1], the AUC brain was determined as 2092 ng·h/g, the Kp was 0.16 and the AUC amounted to 12900 ng·h/mL.
`Nc1ccc(-c2cccs2)cc1NC(=O)c1cc2ccc(NC(=O)C3CCCN3)cc2cn1` (centres unmarked) [Compound 6]: the IC50 at HDAC1 worked out at 5 nM; at HDAC3, 121 nM; against HDAC2 it was 19 nM.
Consider `Nc1ccc(-c2ccc(F)cc2)cc1NC(=O)c1cc2ccc(N3CCNCC3)cc2cn1` [Compound 9], for which, in data set [2], the “brain penetrance (from brain/plasma AUC ratios)” value is listed as “highly brain penetrant” and the Kp stood at 10.3. Moreover, in data set [2] (brain), the AUCINF came out at 9607 ng·h/g, the AUClast came to 9444 ng·h/g, the Cmax was determined as 1000 ng/g and the time of peak concentration (Tmax) stood at 1 h. Moreover, the half-life in data set [2] (brain) was 4.4 h.
On HDAC1, `Nc1ccc(-c2ccccc2)cc1NC(=O)c1cc2ccc(N3CCNCC3=O)cc2cn1` [Compound 4] displayed an IC50 of 6 nM. The molecule also yielded a 50% inhibitory concentration (IC50) on HDAC3 of 182 nM. Further, in data set [2] (brain), the AUCINF was 390 ng·h/g, the AUClast was found to be 319 ng·h/g, the peak level (Cmax) was 145 ng/g and the Tmax turned out to be 0.25 h. For the same molecule, the half-life in data set [2] (brain) is 1.66 h. The Kp in data set [2] came out at 0.1. In addition, in data set [2] (plasma, PK cassette), the AUC(0-inf) was 3820 ng·h/mL, the AUC(0-t) was 3470 ng·h/mL, the MRT inf is 8.72 h and the clearance was 4.37 mL/min/kg. In data set [2] (plasma, PK cassette), the half-life is 7.71 h and the Vd was found to be 2.28 L/kg. The same molecule displayed an IC50 on HDAC2 of 8 nM.
For `Nc1ccc(-c2cccs2)cc1NC(=O)c1cc2ccc(N3CCNCC3)cc2cn1` [Compound 2], the IC50 on HDAC1 was 3 nM. In data set [1], the AUC brain worked out at 23283 ng·h/g, the Kp is 7.2 and the AUC was found to be 3230 ng·h/mL. The IC50 against HDAC3 was 43 nM. For the same molecule, in data set [2], the “brain penetrance (from brain/plasma AUC ratios)” value is reported as “highly brain penetrant” and the Kp was 8.33. Also, in data set [2] (brain), the AUCINF was 13461 ng·h/g, the AUClast turned out to be 11474 ng·h/g, the peak level (Cmax) was 783 ng/g and the Tmax stood at 1 h. The molecule also had a half-life in data set [2] (brain) of 9.3 h. In data set [2] (plasma, PK cassette), this molecule had an AUC(0-inf) of 1620 ng·h/mL, an AUC(0-t) of 1560 ng·h/mL, an MRT inf of 6.97 h and a clearance of 10.3 mL/min/kg. Moreover, in data set [2] (plasma, PK cassette), the half-life is 5.29 h and the Vd was 4.31 L/kg. In addition, at HDAC2, the IC50 was 10 nM.

(Values after patent publication US20170240535A1, “HDAC1/2 INHIBITORS FOR THE TREATMENT OF NEURODEGENERATIVE AND/OR COGNITIVE DISORDERS” (Regenacy Pharmaceuticals, LLC, priority 2016, published 2017).)
